Entries after “also recorded” stand apart in the source; their conditions may differ.
Assays:
[1] = in vivo; settings: mouse, im
[2] = in vivo; settings: mouse, po
[3] = system: AChE; format: biochemical, electric eel and human
[4] = set-up: species or system Male ICR mice; settings: mouse, in vivo
[5] = mouse, in vivo
[6] = target: electric eel AChE (Electrophorus electricus, UniProt O42275); test: biochemical
[7] = target: human erythrocyte AChE (Homo sapiens, UniProt P22303); test: biochemical; settings: read-out: kobs /[I] (human)
Sequence of human erythrocyte AChE (P22303-2 with tags, fused parts or gaps limits assumed): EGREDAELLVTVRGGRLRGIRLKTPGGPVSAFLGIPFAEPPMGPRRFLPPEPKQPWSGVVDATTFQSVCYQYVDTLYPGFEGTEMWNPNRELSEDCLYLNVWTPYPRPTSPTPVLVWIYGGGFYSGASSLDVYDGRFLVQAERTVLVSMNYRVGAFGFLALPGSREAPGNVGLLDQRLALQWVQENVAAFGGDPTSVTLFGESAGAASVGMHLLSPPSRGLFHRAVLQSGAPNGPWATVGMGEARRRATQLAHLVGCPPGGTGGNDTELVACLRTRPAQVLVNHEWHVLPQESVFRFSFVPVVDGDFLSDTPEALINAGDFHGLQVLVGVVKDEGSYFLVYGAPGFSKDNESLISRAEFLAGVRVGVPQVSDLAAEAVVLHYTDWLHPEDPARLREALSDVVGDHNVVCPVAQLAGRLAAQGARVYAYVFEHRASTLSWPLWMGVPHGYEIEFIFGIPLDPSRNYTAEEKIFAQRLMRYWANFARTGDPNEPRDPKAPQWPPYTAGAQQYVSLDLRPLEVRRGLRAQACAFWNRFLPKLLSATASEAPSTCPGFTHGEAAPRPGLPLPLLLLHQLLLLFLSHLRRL

Sequence of electric eel AChE (O42275 24-633): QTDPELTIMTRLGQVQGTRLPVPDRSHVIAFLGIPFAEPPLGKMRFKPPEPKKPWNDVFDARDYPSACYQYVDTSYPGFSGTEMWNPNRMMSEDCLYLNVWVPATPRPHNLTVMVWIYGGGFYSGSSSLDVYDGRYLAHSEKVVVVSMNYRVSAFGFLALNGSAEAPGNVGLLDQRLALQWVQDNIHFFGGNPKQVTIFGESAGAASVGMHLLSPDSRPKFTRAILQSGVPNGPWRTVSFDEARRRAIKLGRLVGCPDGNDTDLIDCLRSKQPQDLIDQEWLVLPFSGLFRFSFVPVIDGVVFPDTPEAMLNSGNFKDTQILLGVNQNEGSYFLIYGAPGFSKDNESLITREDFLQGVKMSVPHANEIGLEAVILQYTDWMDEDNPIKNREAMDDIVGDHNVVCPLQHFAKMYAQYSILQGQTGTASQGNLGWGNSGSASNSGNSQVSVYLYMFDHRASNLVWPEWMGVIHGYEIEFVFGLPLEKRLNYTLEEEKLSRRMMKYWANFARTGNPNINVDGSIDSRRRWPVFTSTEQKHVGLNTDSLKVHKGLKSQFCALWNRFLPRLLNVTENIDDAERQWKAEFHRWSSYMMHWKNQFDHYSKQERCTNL

| SMILES | LD50 at 24 h [1] | also measured |
| --- | --- | --- |
| NC(=O)c1cc[n+](COC[n+]2ccccc2/C=N/O)cc1 [HI-6, reference compound] | 4500 µmol/kg |  |
| C[n+]1cccc(O)c1C=NOCc1ccccc1 [Compound 1b, O-Benzyl-N-(3-hydroxy-1-methyl-2-pyridinemethylene) hydroxylamine chloride] | > 880 µmol/kg | LD50 at 24 h [2]: 3600 µmol/kg; mode of inhibition [3]: pure competitive inhibition |
| C[n+]1cccc(O)c1C=NOCc1ccc(Cl)cc1 [Compound 1d, O-(p-Chlorobenzyl)-N-(3-hydroxy-1-methyl-2-pyridinemethylene) hydroxylamine chloride] | > 320 µmol/kg | mode of inhibition [3]: pure competitive inhibition |
| C[n+]1cccc(O)c1C=NNC(=O)C[n+]1ccccc1 [Compound 5a, 2-(3-Hydroxy-1-methyl-2-pyridinemethylene)-1-[2-(1-pyridinium)acetyl]hydrazine dichloride] | > 670 µmol/kg | LD50 at 24 h [2]: 2900 µmol/kg; GA reactivator activity in words [4]: significant activity as GA reactivators; also recorded: good in vivo reactivators against GA |
| C[n+]1cccc(O)c1C=NO [Compound 1f] |  | toxicity in words [5]: small increase in toxicity |
| C[n+]1ccccc1/C=N/O [Compound 2-PAM, reference compound] | 853 µmol/kg |  |
| CON=Cc1c(O)ccc[n+]1C [Compound 1c, O-Methyl-N-(3-hydroxy-1-methyl-2-pyridinemethylene) hydroxylamine chloride] | > 1970 µmol/kg |  |
| CNC(=O)Oc1ccc2c(c1)[C@]1(C)CCN(C)[C@@H]1N2C [Phy, Physostigmine] |  | kobs /[I] (eel) ([6]; 0.1 m phosphate buffer): 14000 M⁻¹ s⁻¹ |
| C[n+]1cc(O)ccc1C=NO [Compound 1g, reference compound] | > 514 µmol/kg | toxicity in words [5]: small increase in toxicity |
| C[n+]1ccccc1C=NNC(=O)Nc1ccccc1.[Cl-] [Compound 3d, 1-Methyl-2-[[(N-phenylaminocarbonyl)hydrazono]methyl]pyridinium chloride] | > 430 µmol/kg |  |
| C[n+]1cccc(O)c1C=NNC(=O)Nc1ccccc1.[Cl-] [Compound 3b, 3-Hydroxy-1-methyl-2-[[(N-phenylaminocarbonyl)hydrazono]methyl]pyridinium chloride] | > 40 µmol/kg |  |
| COc1ccc(CON=Cc2c(O)ccc[n+]2C)cc1 [Compound 1e, O-(p-Methoxybenzyl)-N-(3-hydroxy-1-methyl-2-pyridinemethylene) hydroxylamine chloride] | > 760 µmol/kg | LD50 at 24 h [2]: > 3200 µmol/kg; mode of inhibition [3]: pure competitive inhibition |
| C[n+]1ccccc1C=NNC(=O)C[n+]1ccccc1 [Compound 5b, 2-(1-Methyl-2-pyridinemethylene)-1-[2-(1-pyridinium)acetyl]hydrazine dichloride] | 380 µmol/kg | GA reactivator activity in words [4]: significant activity as GA reactivators; also recorded: good in vivo reactivators against GA |
| CN(C)C(=O)Oc1ccc[n+](C)c1 [Pyr, Pyridostigmine] |  | kinact/KI ([6]; read-out: kobs /[I] (eel)): 580 M⁻¹ s⁻¹; kinact/KI [7]: 13000 M⁻¹ s⁻¹ |
| C[n+]1ccccc1C=NNC(N)=O [Compound 3c] | > 560 µmol/kg |  |
| C[n+]1cccc(O)c1C=NNC(N)=O.[Cl-] [Compound 3a, 2-[[(Aminocarbonyl)hydrazono]methyl]-3-hydroxy-1-methyl pyridinium chloride] | > 1100 µmol/kg |  |
| C[n+]1ccccc1C=NOCc1ccccc1 [Compound 1a, O-Benzyl-N-(1-methyl-2-pyridinemethylene) hydroxylamine chloride] | 180 µmol/kg | mode of inhibition [3]: pure competitive inhibition |

Source: patent US5180831A (priority 1990, dated 1993)
